According to patent US8664221B2 (Santen Pharmaceutical Co., Ltd., priority 2008, dated 2014):

Assays:
[1] = test system: IL-6 production induced by lipopolysaccharide (LPS) in human corneal epithelial cells (HCE-T); assay: Inhibition of LPS-induced IL-6 production in human corneal epithelial cells (GR agonist activity); format: cell-based; conditions: Corneal epithelial cell, 10 μL of 100 μM test compound solution per well, 4 hours incubation, efficacy relative to DEX
Description: In order to evaluate a GR agonist activity of the present compound, the inhibitory effects on the IL-6 production induced by lipopolysaccharide (LPS) in human corneal epithelial cells. IL-6 levels in the conditioned medium were measured using the HTRF human IL-6 Kit (boehringer-Ingelheim, Cat No. 62IL6PEB), and the procedure was carried out according to the protocol attached to the kit. Hereinafter, the specific method will be described.
LPS solution: After LPS was dissolved in phosphate buffer solution (hereinafter referred to as PBS(−)), the resulting solution was diluted with 10% FBS-DMEM/F12 medium, whereby a 1 μg/mL LPS solution was prepared.
After a test compound was dissolved in dimethylsulfoxide (hereinafter referred to as DMSO), the resulting solution was diluted with 10% FBS-DMEM/F12 medium, whereby a 100 μM test compound solution was prepared. A 100 μM DEX solution was prepared by the same method, and the inhibitory ratio of IL-6 production of DEX was evaluated to use for calculating efficacy (% DEX).
Used cell: SV40-immortalized human corneal epithelial cells (HCE-T) (RIKEN)
1) HCE-T cells were harvested, and seeded at 2.0×10^4 cells/0.1 mL/well in a 96-well plate.
2) After incubation overnight, the medium was removed and a 80 μL of new 10% FBS-DMEM/Ham's F12 medium was added into each well.
3) A 10 μL of test compounds solution was added into each well.
4) A 10 μL of LPS solution was added into each well.
5) As a negative control, a 10 μL of 10% FBS-DMEM/Ham's F12 medium was added into each well instead of a test compound solution and a LPS solution.
6) As a positive control, a 10 μL of 10% FBS-DMEM/Ham's F12 medium containing 1% DMSO was added into each well instead of a test compound solution.
7) After 4 hours incubation, supernatants were collected and IL-6 levels in the supernatants were quantitated using the HTRF human IL-6 Kit.
8) The inhibition ratio of IL-6 production (%) was calculated according to the following equation.
The inhibition ratio of IL-6 production (%) was calculated according to the following equation. The inhibition ratio of IL-6 production (%)=100×{1−(IL-6 level in each group−mean value of IL-6 level in negative control)/(mean value of IL-6 level in positive control−mean value of IL-6 level in negative control)} (%)
Furthermore, the inhibition ratio of IL-6 production (efficacy (% DEX)) was also calculated according to the following equation. Efficacy(% DEX)=100×{(mean value of IL-6 inhibition in compound-treated group)/(mean value of IL-6 inhibition in DEX-treated group)} (%) (Results and Discussion)

[2] = test system: allergic conjunctivitis model in mice; assay: Inhibitory effect on vascular hyper-permeability in allergic conjunctivitis model; format: in vivo; conditions: male BALB/c mice, ovalbumin-sensitized; 1% (W/V) suspension instilled 15 min, 1 hr and 3 hrs before ovalbumin; Evans blue dye leakage; mean of 6 eyes
Description: In order to evaluate anti-allergic effect of the present compound, the inhibitory effect on the vascular hyper-permeability in allergic conjunctivitis model in mice was examined. This effect was calculated based on dye leakages of vehicle-treated group (control group) and test compound-treated group.
By adding 0.5% polysorbate 80/saline to the test compound, a 1% (W/V) test compound suspension was prepared.
1) Ovalbumin absorbed on aluminum hydroxide gel was dissolved in saline (20 μg ovalbumin/mL), and male BALB/c mice, 6 weeks old, were actively sensitized to the antigen by intraperitoneal injections of 500 μL of it.
2) On the 6th day from sensitization, sensitized mice were boosted by additional intraperitoneal injections of 500 μL ovalbumin absorbed on aluminum hydroxide gel (20 μg ovalbumin/mL).
3) On the 11th day, 12th day, 13th day, 14th day and 15th day from the first sensitization, allergic conjunctivitis were induced by instillations to the right eyes of the mice of […] of 50% glycerol solution containing 15% (W/V) ovalbumin.
4) […] of test compound suspension per eye was instilled to the right eye of the above mice 15 min, 1 hr and 3 hrs before ovalbumin instillation (three times) on the 15th day from sensitization. In vehicle-treated group (control group), the mice were instilled with 0.5% polysorbate 80/saline in substitution for test compound suspension.
5) Just before ovalbumin instillation on the 15th day from sensitization, all animals received a tail intravenous injection of 0.1% Evans blue dye. The right periocular tissues of the mice, which were the leaked parts of dye, were collected 30 min after ovalbumin instillation. The dye was extracted from the tissues with the dye extraction liquid. Then the absorbance of the dye extract was measured. The dye leakage was calculated from the absorbance value, and the inhibition ratio of the vascular hyper-permeability of test compound-treated group was calculated according to calculation equation 1. The inhibition ratio of the vascular hyper-permeability of test compound-treated group (%)=(1−Ax/Ao)×100 (Calculation Equation 1) • Ao: Dye leakage in vehicle-treated group (control group) • Ax: Dye leakage in test compound-treated group (Test Results and Discussion)

[3] = test system: carrageenan-induced paw edema model in rats; assay: Carrageenan-induced paw edema model; format: in vivo; conditions: female Lewis rat; 10 mg/kg oral, 30 minutes before carrageenan; paw volume 3 hr after injection; read-out: Inhibition ratio of paw edema (%)
Description: The inhibitory effect for paw edema using carrageenan-induced paw edema model in rats is known as one of the general methods for testing the inhibitory effect on inflammation on the joint and the like. Therefore, the inhibitory effect of the present compound for paw edema was carried out, the inhibition rate of paw edema was calculated, and then the anti-inflammatory effect of the present compound was evaluated based on the rate. The concrete method of the test is described below.
A 2 mg/mL test compound suspension was prepared by adding 1% methyl cellulose (base) to the test compound.
1) The weight and right hind paw volume of female Lewis rat (8˜10 weeks) were measured before drug administration.
2) The test compound suspension was administered at 10 mg/kg to the test compound group. Meanwhile, 1% methyl cellulose was administered orally at 5 mL/kg to the sham-operation group and vehicle group (control group).
3) After 30 minutes from oral administration, 0.1 mL of a 1% w/v carrageenan/distilled water solution was subcutaneously injected into right foot pad. 0.1 mL of distilled water was subcutaneously injected for sham-operation group.
4) The right hind paw volume was measured 3 hr after injection of carrageenan or distilled water.
(Formulation Concerning Estimation of Drug Activity) The increase ratio of paw volume (%)=100×(right hind paw volume 3 hr after injection of carrageenan or distilled water (mL)−right hind paw volume before the test compound administration (mL))/right hind paw volume before the test compound administration (mL) (Calculation Equation 1) The inhibition ratio of paw edema (%)=100−100×(the increase ratio of paw volume of each test compound group (%)−the increase ratio of paw volume of sham-operation group (%))/(the increase of paw volume of vehicle group (%)−the increase of paw volume of sham-operation group (%)) (Calculation Equation 2) (Test Results and Discussion)

Structure (SMILES)	Emax [1] [%]	The inhibition ratio of the vascular hyper-permeability (%) [2] [%]	inhibition in vivo at 10 mg/kg [3] [%]
COc1cc(OS(=O)(=O)C2CCCC2)ccc1-c1ccc2c(c1COc1cc(F)ccc1C)N(C)C(=O)C(C)(C)N2 [Compound No. 1-16, 7-(4-Cyclopentylsulfonyloxy-2-methoxyphenyl)-8-(5-f1uoro-2-methylphenoxymethyl)-1,3,3-trimethly-3,4-dihydro-1H-quinoxalin-2-one]	91	18	–
COc1ccccc1NCc1c(-c2ccc(OS(=O)(=O)C(C)C)cc2OC)ccc2c1N(C)C(=O)C(C)(C)N2 [Compound No. 2-5]	74	–	40
CCCCS(=O)(=O)Oc1ccc(-c2ccc3c(c2COc2cc(F)ccc2C)N(C)C(=O)C(C)(C)N3)c(OC)c1 [Compound No. 1-5, 7-(4-Butylsulfonyloxy-2-methoxyphenyl)-8-(5-fluoro-2-methyl-phenoxymethyl)-1,3,3-trimethyl-3,4-dihydro-1H-quinoxalin-2-one]	88	30	–
CCCS(=O)(=O)Oc1ccc(-c2ccc3c(c2CNc2ccccc2OC)N(C)C(=O)C(C)(C)N3)c(OC)c1 [Compound No. 2-7, 8-(2-Methoxyphenylaminomethyl)-7-(2-methoxy-4-propylsulfonyl-oxyphenyl)-1,3,3-trimethyl-3,4-dihydro-1H-quinoxalin-2-one]	94	35	52
CCCS(=O)(=O)Oc1ccc(-c2ccc3c(c2COc2cc(F)ccc2C)N(C)C(=O)C(C)(C)N3)c(OC)c1 [Compound No. 1-2, 8-(5-Fluoro-2-methylphenoxymethyl)-7-(2-methoxy-4-propyl-sulfonyloxyphenyl)-1,3,3-trimethyl-3,4-dihydro-1H-quinoxalin-2-one]	91	37	–
COc1cc(OS(=O)(=O)C(C)C)ccc1-c1ccc2c(c1COc1cc(F)ccc1C)N(C)C(=O)C(C)(C)N2 [Compound No. 1-7, 8-(5-Fluoro-2-methylphenoxymethyl)-7-(4-isopropylsulfonyloxy-2-methoxyphenyl)-1,3,3-trimethyl-3,4-dihydro-1H-quinoxalin-2-one]	94	–	43
COc1cc(OS(=O)(=O)C2CC2)ccc1-c1ccc2c(c1COc1cc([N+](=O)[O-])ccc1C)N(C)C(=O)C(C)(C)N2 [Compound No. 1-32, 7-(4-Cyclopropylsulfonyloxy-2-methoxyphenyl)-8-(2-methyl-5-nitrophenoxymethyl)-1,3,3-trimethyl-3,4-dihydro-1H-quinoxalin-2-one]	90	–	61
COc1cc(OS(=O)(=O)CCC(F)(F)F)ccc1-c1ccc2c(c1COc1cc(F)ccc1C)N(C)C(=O)C(C)(C)N2 [Compound No. 1-12, 8-(5-Fluoro-2-methylphenoxymethyl)-7-[2-methoxy-4-(3,3,3-trifluoro-propylsulfonyloxy)phenyl]-1,3,3-trimethyl-3,4-dihydro-1H-quinoxlin-2-one]	100	15	–
COc1cc(OS(=O)(=O)CC(C)C)ccc1-c1ccc2c(c1COc1cc(F)ccc1C)N(C)C(=O)C(C)(C)N2 [Compound No. 1-11, 8-(5-Fluoro-2-methylphenoxymethyl)-7-(4-isobutylsulfonyloxy-2-methoxyphenyl)-1,3,3-trimethyl-3,4-dihydro-1H-quinoxalin-2-one]	99	20	–
COc1cc(OS(=O)(=O)C(C)C)ccc1-c1ccc2c(c1COC(=O)c1ccc(C)s1)N(C)C(=O)C(C)(C)N2 [Compound No. 1-23, 7-(4-Isopropylsulfonyloxy-2-methoxyphenyl)-8-(5-methylthiophen-2-ylcarbonyloxymethyl)-1,3,3-trimethyl-3,4-dihydro-1H-quinoxalin-2-one]	83	10	–
CCS(=O)(=O)Oc1ccc(-c2ccc3c(c2COc2cc(F)ccc2C)N(C)C(=O)C(C)(C)N3)c(OC)c1 [Compound No. 1-6, 7-(4-Ethylsulfonyloxy-2-methoxyphenyl)-8-(5-fluoro-2-methyl-phenoxymethyl)-1,3,3-trimethyl-3,4-dihydro-1H-quinoxalin-2-one]	86	–	63
CCCS(=O)(=O)Oc1ccc(-c2ccc3c(c2COC(=O)c2ccc(C)s2)N(C)C(=O)C(C)(C)N3)c(OC)c1 [Compound No. 1-22, 7-(2-Methoxy-4-propylsulfonyloxyphenyl)-8-(5-methylthiophen-2-ylcarbonyloxymethyl)-1,3,3-trimethyl-3,4-dihydro-1H-quinoxalin-2-one]	99	21	–
COc1ccccc1NCc1c(-c2ccc(OS(=O)(=O)C3CCCC3)cc2OC)ccc2c1N(C)C(=O)C(C)(C)N2 [Compound No. 2-6, 7-(4-Cyclopentylsulfonyloxy-2-methoxypheny1)-8-(2-methoxyphenylaminomethyl)-1,3,3-trimethyl-3,4-dihydro-1H-quinoxalin-2-one]	82	13	–
CCCS(=O)(=O)Oc1ccc(-c2ccc3c(c2CNc2cc(F)ccc2C)N(C)C(=O)C(C)(C)N3)c(OC)c1 [Compound No. 1-44, 8-(5-Fluoro-2-methylphenylaminomethyl)-7-(2-methoxy-4-propyl-sulfonyloxyphenyl)-1,3,3-trimethyl-3,4-dihydro-1H-quinoxalin-2-one]	88	22	–
COc1cc(OS(=O)(=O)C2CC2)ccc1-c1ccc2c(c1CNc1cc(F)ccc1C)N(C)C(=O)C(C)(C)N2	81	–	52
